The source of these data is patent US10561703B2, “Method of modulating sex hormone levels using a sex hormone secretion modulator” (GEMVAX & KAEL CO., LTD., priority 2013, dated 2020).

Test [1] relates to WPMY-1. The experiment in a line: Cell proliferation (CCK-8) in prostate mesenchymal cell line. It counts as cell-based. Here is the method: When testosterone is injected into the body, testosterone becomes dihydrotestosterone (DHT) due to 5α-reductase, which stimulates the proliferation of prostate cells and induces benign prostatatic hyperplasia (BPH). Based on these facts, a PEP-1 (GV1001) injection experiment was performed for the inhibition of proliferation of prostatic cells in the following manner: The cell lines were mesenchymal cell lines (WPMY-1) and epithelial cell lines (RWPE-1) of prostates obtained from BPH animal models. […] Observation of changes in the proliferation was performed by suctioning a culture medium, adding 10 μL of CCK-8 solution to each well, and measuring an optical density at 450 nm for 1 hour to about 4 hours.

The subject of test [2] is Estradiol E2. The experiment in a line: Estradiol E2 level in blood (serum CLIA) after repeated sc PEP-1. It counts as in vivo, SD rats. How it is done:
PEP-1 (peptide of SEQ ID NO: 1), lyophilized white powder, obtained according to the method mentioned in example 1 was dissolved in 0.9% of saline, considering the correction factor of PEP-1 (purity: 94.13%, content: 92.36%, correction factor: 1.15). 50 mg/mL stock solution was further diluted into 20 mg/mL, 2 mg/mL, and 1 mg/mL with 0.9% saline, and stored at 4° C. for a week until the use.
The purpose of this example is to confirm the change of sexual hormones in blood from SD rats with 7 days repeated daily administration of SEQ ID NO: 1 peptide, PEP-1. This experiment followed the Ethics Regulation of Animal Test by KAMSI Inc. (Korea Animal Medical Science Institute). In addition, this experiment, Non-GLP experiment, referred to the MFDS (Ministry of Food and Drug Safety) notification; Agent 2013-40 (5th April 2013), Principles of Good Laboratory Practice (1997).
SPF Rats (Crlj:CD(SD)) were purchased from ORIENTBio Inc. (Mokdong-ri, Buk-myeon, Gapyeong-gun, Gyeonggi-do, Republic of Korea). 75 male (6.5 weeks old and 190˜210 g) and 75 female (6.5 weeks old and 160˜180 g) rats were monitored for 4 days, and 64 of male and female rats (each) were selected for the experiment. Raising condition is as follows; 23±3° C. of temperature, […] of relative humidity, 10˜20 times/hr of number of air changes, 12 hours (8 a.m.˜8 p.m.) of lighting with 150˜300 Lux of intensity.
64 male and female […] (mentioned above) were divided into 8 groups. Administration regimen, for example, drugs, routes, dosages, and volumes were as follows:
The detailed administration regimen is as follows; once a day, twice a day and twice a week in each experimental group. Injection initiated at 10 a.m. every day, and each rat was injected at one minute intervals. Rats in Group 9, 10, 13 and 14 were injected twice a week. Administration of high dose test agent preceded that of low dose. The volume of injection was calculated using recently measured weight of rats, and it was 5 mL/kg. Subcutaneous injection was performed as follows; assistant tilted the back of rat upward, and experimenter sterilized the back of rat with 70% alcohol, followed by subcutaneous injection of test agent with 26 G syringe.
1.4 mL of blood sample (0.7 mL of serum) was collected after measurement of weight (Day 0). Next day (1 Day), 1.4 mL of blood sample (0.7 mL of serum) was collected twice after injection of test agent (4 hrs and 8 hrs after administration of test agent). […]
A CLIA (Chemi-Luminescence Immune Assay) Kit was used to analyze Testosterone, Estradiol E2, FSH (Follicle stimulating hormone), and LH (Luteinizing hormone). […]
Estradiol E2 was analyzed using the samples prepared from example 2. […] As mentioned in example 2, CLIA (Chemi-luminescence immune assay) Kit was used, following the manufacture's protocol. […]

Regarding “EARPALLTSRLRFIPK (listed as Homo sapiens) [PEP-1, hormone secretion modulator / GnRH analog]”, the “Cell proliferation (optical density at 450 nm) versus untreated cells” value in test [1] (WPMY-1, 100 and 200 μM GV1001, no DHT) is given as “did not show a substantial difference in optical densities”. In addition, the “Inhibition of DHT-induced cell proliferation” value in test [1] (WPMY-1, 100 and 200 μM GV1001 with 25 nM DHT) is on record as “substantial inhibition effects on proliferation”. Further, the “Estradiol E2 level” value fell in the range of 16 to 30 pg/mL in test [2] (female group, Day 1, all groups (PEP-1 and/or vehicle), baseline 20-50 pg/mL) and 15 to 20 pg/mL in test [2] (male rat, initial level remained same until Day 7). Moreover, the “Effect on Estradiol E2 level” value in test [2] (female group, level recovered from Day 3-4) was “inhibited the Estradiol E2 level in the beginning”; in test [2] (male rat), “does not have effect on Estradiol E2 level”.
